The values below come from US20240350503A1, “COMPOUNDS FOR TREATMENT OF VIRAL INFECTIONS BY NEUROTROPIC VIRUS” (priority 2021, published 2024).

One test has as its system IRF1 gene expression. In words: RNA-sequencing of IRF1 gene expression in SH-Sy5y cells upon ML228 treatment. It counts as cell-based, human. The conditions noted are these: SH-Sy5y cells treated with AAVS1 sgRNA, ML228 0.5 μM for 8 h versus DMSO control.
The next test relates to EMCV. The format is cell-based, FA strain EMCV.
Test [1] deals with HSV-1. The format is cell-based, HSV-1 KOS strain.
Test [2] relates to HSV-2. In words: virus plaque assay of supernatant from HSV-2 infected mouse primary neurons. It counts as cell-based, HSV-2 333 strain. The note with it: 0.5 μM, 2 h pre-treatment, MOI 2, 72 h, versus DMSO control. The method, then: (§1) The isolated mouse primary-neurons were pre-treated with ML228 and DMSO at a concentration of 0.5 μM for 2 hours and were infected with HSV-1, at a MOI of 3 and HSV-2, at a MOI of 2. After 4 hours infection, the virus was removed and the cells were incubated with ML228 and DMSO for 72 hours. After 72 hours, the supernatant was used for virus plaque assay and the cells were lysed for RNA-extraction and RT-qPCRt.
(§2) Supernatants collected from mouse primary neurons treated with ML228 and DMSO and infected with HSV-1 and HSV-2, were used for virus titer in a virus plaque assay. For this purpose, Vero cells at a density of 1.2×10^6 cells/petri dish, in DMEM were seeded and left overnight in order to settle and to form a monolayer. The next day, cells were infected with 100 μL of supernatant in appropriate serial dilutions. The cells were incubated for 1 hour at 37° C. Subsequently, 5 ml DMEM supplemented with 0.2% normal human immunoglobin (Octapharma) were added to the cells. The plates were incubated for 2-3 days at 37° C. and stained with 0.03% methyl blue. The plaques were counted and the results were represented as PFU (plaque-forming units) per sample.

Test [3] deals with HSV-1. In words: virus plaque assay of supernatant from HSV-1 infected mouse primary neurons. It counts as cell-based, HSV-1 KOS strain. The conditions noted are these: 0.5 μM, 2 h pre-treatment, MOI 3, 72 h, versus DMSO control. The protocol: as §1, §2
Test [4] deals with HSV-2. In words: RT-qPCR of HSV-2 glycoprotein B RNA in infected mouse primary neurons. The conditions noted are these: 0.5 μM, 2 h pre-treatment, MOI 2, 72 h, versus DMSO control. It counts as cell-based, HSV-2 333 strain. The protocol: as §1
(§3) The RT-qPCR results were obtained by total RNA extraction using the High Pure RNA Isolation kit (Roche) according to the manufacturer's instructions. RNA quality and concentration was assessed using Nanodrop spectrometry (Thermo Fisher). Viral replication was analysed by measuring RNA level against HSV-(1/2) Glycoprotein B (gB) using Brilliant III Ultra-Fast SYBR Green QRT-PCR Master Mix kit (Agilent Technology). CT values were normalized versus 18srRNA (ACT) in HSV-(1/2) infection.
Background: Real-time PCR tracks product formation cycle by cycle.

The subject of the next test is Influenza A virus. In words: RT-qPCR of Influenza A virus matrix 2 (M2) RNA in infected SH-SY5Y cells. It counts as cell-based, Influenza virus A (H1N1) strain PR8. The conditions noted are these: 1 μM, 2 h pre-treatment, MOI 0.1, 48 h, versus DMSO control.
For test [5], the system named is HSV-1. The format is cell-based, HSV-1 KOS strain. The source holds these as a separate data set.
Test [6] concerns HSV-1. Kind of test: RT-qPCR of HSV-1 glycoprotein B RNA in infected mouse primary neurons. The note with it: 0.5 μM, 2 h pre-treatment, MOI 3, 72 h, versus DMSO control. It counts as cell-based, HSV-1 KOS strain. The protocol: as §1, §3
A further test has as its system VSV. The format is cell-based, Indiana strain VSV. The conditions noted are these: SH-SY5Y cells, 0.5 μM, 2 h pre-treatment, MOI 0.001, 18 h; versus DMSO control.
For test [7], the system named is HSV-2. It counts as cell-based, HSV-2 333 strain.
Test [8] relates to HSV-2. The format is cell-based, HSV-2 333 strain. This is another data set of the same source.

“Also recorded” adds a separate entry of the source. Like-named read-outs stand apart in the source and are kept apart here.

`c1ccc(-c2ccc(CNc3nc(-c4ccccn4)nnc3-c3ccccc3)cc2)cc1` [ML228]: in the test on IRF1 gene expression, the “IRF1 gene expression, log 2 fold change” value was determined as 0.6842. Further, in the test on EMCV, the “EMCV titer / virus cytopathic effect (TCID50%)” value is “significantly decreased”. Also, the results for the “HSV-1 replication (virus gB RNA level)” value in the test on HSV-1 [1] and in the test with HSV-1 [6] were “significantly decreased” and “reduction of the viral replication; also recorded: significantly decreased”, respectively. In addition, the figures for the “number of plaque forming units (PFU) in titer, HSV-2” value in the test with HSV-2 [2] and with HSV-2 [8] were “significantly less plaque-forming units; also recorded: significantly decreased” and “completely counteract the virus infection; also recorded: significantly decreased”, respectively. Moreover, the “number of plaque forming units (PFU) in titer, HSV-1” value in the test on HSV-1 [3] is on record as “significantly reduced; also recorded: significantly decreased”; in the test with HSV-1 [5], “completely counteract the virus infection; also recorded: significantly decreased”. Moreover, the “HSV-2 replication (virus gB RNA level)” value with HSV-2 [4] is reported as “severely inhibited; also recorded: significantly decreased”; in the test with HSV-2 [7] it was “significantly decreased”. Also, in the test on Influenza A virus, the “Influenza A virus replication (virus M2 RNA level)” value is listed as “also reduced; also recorded: significantly decreased”. Also, the “VSV titer / virus cytopathic effect (TCID50%)” value in the test with VSV is listed as “significantly reduces the virus cytopathic effect; also recorded: significantly decreased”.
